Laboratory results taken from paper PMC12368660, “Synergistic Ciprofloxacin-RWn Peptide Therapy Overcomes Drug Resistance in Gram-Negative Bacteria” (ACS Omega, 2025).
No end group written: not given here.

Columns and labels:
[1] = tested on: human embryonic kidney (HEK293) cells (ATCC CRL-1573); type: cell-based; settings: 24 h
Description: HEK293 cells were cultured in Dulbecco's modified Eagle's medium (DMEM; Gibco, Thermo Fisher Scientific, Waltham, MA) supplemented with 10% (v/v) fetal bovine serum (FBS; Gibco) and 1% penicillin/streptomycin (Gibco) at 37 °C in a humidified atmosphere containing 5% CO2. Cells were seeded in 384-well plates at a density of 5 × 10^3 cells/well and incubated for 24 h. Compounds were then added to the wells at various concentrations. After a further 24 h incubation, resazurin (Sigma-Aldrich) was added to each well to a final concentration of 44 μM. After 4 h of incubation, fluorescence was measured at excitation/emission wavelengths of 560/590 nm using a Tecan […] microplate reader. Cell viability was expressed as a percentage relative to that of untreated control cells. […] All assays were conducted in duplicate (n = 2) across separate assay plates. […]

[2] = tested on: human umbilical vein endothelial (HUVEC) cells
[3] = cited from earlier work; for Solubility in 1x DPBS, estimated maximum concentration tested or achieved: pH 7.1
Description: Ciprofloxacin (CIP; Sigma-Aldrich, St. Louis, MO) and synthesized peptides were dissolved to prepare stock solutions. […] Solubility Test Results for Synthetic RWn Peptides. Peptide Ultrapure Waterᵃ 1x DPBS (pH 7.1 ± DMSOᵃ Formic Acid ID 0.1)ᵃ (HCOOH)ᵃ RW4 Dissolved (≤10 Dissolved (≤5 mg/mL) Dissolved (≤15 mg/mL) N/A mg/mL) RW4P Dissolved (≤2 Dissolved (≤2 mg/mL) Dissolved (≤10 mg/mL) N/A mg/mL) RW6 Dissolved (≤10 Undissolved Dissolved (≥10 mg/mL) N/A mg/mL) RW6P Dissolved (≤5 Undissolved Dissolved (≥10 mg/mL) N/A mg/mL) RW6-2P Undissolved Undissolved Dissolved (≤2 mg/mL) N/A RW8 Dissolved (≤5 Undissolved Dissolved (≤15 mg/mL) N/A mg/mL) RW8P Undissolved Undissolved Undissolved Dissolved (≤5 mg ...

[4] = tested on: human embryonic kidney (HEK293) cells (ATCC CRL-1573); design: method as in earlier work; settings: cited from earlier work
[5] = tested on: human umbilical vein endothelial (HUVEC) cells; design: method as in earlier work; settings: cited from earlier work

Molecule | HEK293 (CC50) [1] [µg/mL] | HUVEC (CC50) [2] [µg/mL] | Solubility in DMSO, estimated maximum concentration tested or achieved [3] [µg/mL] | Solubility in ultrapure water, estimated maximum concentration tested or achieved [3] [µg/mL] | Solubility in 1x DPBS, estimated maximum concentration tested or achieved [3] [µg/mL] | concentration without detectable cytotoxicity, HEK293 [4] [ng/mL] | concentration without detectable cytotoxicity, HUVEC [5] [ng/mL] | Solubility in formic acid (HCOOH), estimated maximum concentration tested or achieved [3] [µg/mL]
N=C(N)NCCC[C@H](NC(=O)[C@H](Cc1c[nH]c2ccccc12)NC(=O)[C@H](CCCNC(=N)N)NC(=O)[C@H](Cc1c[nH]c2ccccc12)NC(=O)[C@H](CCCNC(=N)N)NC(=O)[C@H](Cc1c[nH]c2ccccc12)NC(=O)[C@H](CCCNC(=N)N)NC(=O)[C@H](Cc1c[nH]c2ccccc12)NC(=O)[C@H](CCCNC(=N)N)NC(=O)[C@H](Cc1c[nH]c2ccccc12)NC(=O)[C@@H](N)CCCNC(=N)N)C(=O)N[C@@H](Cc1c[nH]c2ccccc12)C(=O)O [RW6] | >32 | >32 | ≥ 10000 | ≤ 10000 |  |  |  | 
RWRWPRWRW-NH2 [RW4P] |  |  | ≤ 10000 | ≤ 2000 | ≤ 2000 |  |  | 
RWRWPRWRWPRWRW-NH2 [RW6–2P] |  |  | ≤ 2000 |  |  |  |  | 
RWRWRWPRWRWRW-NH2 [RW6P] |  |  | ≥ 10000 | ≤ 5000 |  |  |  | 
RWRWRWRW [RW4] | >32 | >32 | ≤ 15000 | ≤ 10000 | ≤ 5000 | > 32000 | > 32000 | 
RWRWRWRWPRWRWRWRW-NH2 [RW8P] |  |  |  |  |  |  |  | ≤ 5000
RWRWRWRWRWRWRWRW [RW8, arginine-tryptophan-rich antimicrobial peptide, 16 AA] |  |  | ≤ 15000 | ≤ 5000 |  |  |  | 
